What was measured:
[1] = Percent of Dabigatran etexilate remaining after exposure to aqueous solutions; format: physicochemical; conditions: 15 minutes
[2] = pH 4.5-7.4; cited from earlier work
[3] = Aqueous solubility of Dabigatran etexilate in presence of solubility enhancers; format: physicochemical
From the text: However, based on data presented in Table I, TPGS (tocopherol polyethylene glycol succinate) would be expected to be a poor solubilizer by one skilled in the art. […] The present invention provides pharmaceutical compositions and method of administration of Dabigatran etexilate to overcome the clinical limitations posed by gastrointestinal delivery, specifically by increasing the solubility of Dabigatran etexilate, while maintaining it in its most bioavailable form to ascertain an effective transport through the oral mucous membranes so it effectively can exert its anticoagulant activity. We have observed that the use of pharmaceutical solubilizers such as d-alpha Tocopherol polyethylene glycol succinate (TPGS) and Polysorbate 80 improved the solubility up to 5-10 mg/mL. Without being bound to any specific mechanism, the enhanced solubility and dissolution of Dabigatran etexilate, when co-formulated with TPGS may likely be due to ability of TPGS to inhibit precipitation and maintain supersaturation of dabigatran free base in the formulation microenvironment during dissolution. Pharmaceutical co-solvents such as Polyethylene Glycol 400 (PEG 400) and Glycerol improved the solubility compared to water alone, but the solubility was still<0.1 mg/mL.

Dabigatran etexilate
% of Initial (23° C.) ([1]; Water): 21.6% | % of Initial (40° C.) ([1]; Water): 21.0% | % of Initial (23° C.) ([1]; pH 2 acetate buffer (0.1M)): 0.2% | % of Initial (40° C.) ([1]; pH 2 acetate buffer (0.1M)): 0.2% | % of Initial (23° C.) ([1]; pH 3 acetate buffer (0.1M)): 22.4% | % of Initial (40° C.) ([1]; pH 3 acetate buffer (0.1M)): 22.2% | % of Initial (23° C.) ([1]; pH 4 phosphate buffer (0.1M)): 59.5% | % of Initial (40° C.) ([1]; pH 4 phosphate buffer (0.1M)): 55.7% | Solubility under physiological conditions relevant to oral absorption [2]: virtually insoluble | Solubility (mg/ml) 25° C. ([3]; 2% w/v Polysorbate 80 in 0.01M histidine buffer, pH 7.4, 25° C.): <0.1 mg/mL | Solubility (mg/ml) 25° C. ([3]; 5% w/v Polysorbate 80 in 0.01M histidine buffer, pH 7.5, 25° C.): <0.1 mg/mL | Solubility (mg/ml) 25° C. ([3]; 5% w/v TPGS in 0.01M histidine buffer, pH 7.6, 25° C.): 0.37 mg/mL | Solubility (mg/ml) 25° C. ([3]; 10% w/v Glycerol in 0.01M histidine buffer, pH 7.6, 25° C.): <0.1 mg/mL | Solubility (mg/ml) 25° C. ([3]; 10% w/v PEG 400 in 0.01M histidine buffer, pH 7.5, 25° C.): <0.1 mg/mL | Solubility with pharmaceutical co-solvents ([3]; Polyethylene Glycol 400 (PEG 400) and Glycerol): < 0.1 mg/mL | Solubility (mg/ml) 25° C. ([3]; Water, pH 6.5, 25° C.): <0.001 mg/mL

Source: patent US20190008843A1, “PHARMACEUTICAL COMPOSITIONS FOR ON DEMAND ANTICOAGULANT THERAPY” (Kenox Pharmaceuticals Inc, priority 2016, published 2019)
